These results are taken from article PMC4775225, “Bromodomain inhibition of the transcriptional coactivators CBP/EP300 as a therapeutic strategy to target the IRF4 network in multiple myeloma” (eLife, 2016).

Experiment [1] has as its target T1, CBP bromodomain (amino acids 1082–1197) (Homo sapiens, UniProt Q92793).
T1 construct: His-Flag-tagged CBP bromodomain (amino acids 1082–1197)
The experiment can be described thus: AlphaLISA, acetylated peptide binding to CBP bromodomain. The procedure: (§1) Compound at varying concentrations were dispensed into 384 well Proxiplates (Perkin Elmer) using Echo technology (Labcyte, Inc.; Sunnyvale, CA). For CBP assays, 0.5 μM His-Flag-tagged CBP bromodomain (amino acids 1082–1197) was incubated with 0.003 μM H4-TetraAc-biotin for 20 min at room temperature in 1x reaction buffer (50 mM HEPES pH 7.5, 1 mM TCEP, 0.069 mM Brij-35, 150 mM NaCl, and 0.1 mg/ml BSA). Streptavidin acceptor beads and nickel donor beads (Perkin Elmer) were added to 15 μg/ml with a Combi Multidrop dispenser. Plates were sealed and incubated at 90 min in the dark at room temperature, and plates were read on an Envision plate reader (Perkin Elmer) according to manufacturer’s instructions. For the BET assays, the protocol was similar except that BET family bromodomains were used at 0.03 μM (BRD4-BD1) and incubated with 0.2 μM H4-TetraAc-biotin for 20 min in reaction buffer (40 mM HEPES pH7.0, 1 mM DTT, 0.069 mM Brij-35, 40 mM NaCl, and 0.1 mg/ml BSA). Streptavidin donor beads and Anti-Flag Acceptor beads (Perkin Elmer) were added to 10 μg/ml, and then plates were sealed and incubated in the dark for 60 min prior to reading on the Envision.

In experiment [2] the test system is BRD4 bromodomain. The experiment can be described thus: Differential scanning fluorimetry. The experiment is classed as binding. Conditions: BRD4 4–8 μM, compound 20 μM. The procedure:
(§2) Variable buffer compositions were used for the different bromodomain proteins with 12X SYPRO orange dye, 20 μM of the compounds or equivalent percentage of DMSO, and 4–8 µM of the indicated protein. […] The melting temperature (Tm) for each sample was determined using the ViiA7 software (version 1.2.2) and the ΔTm was calculated by subtracting the Tm of the control from the Tm of the compound treated sample.
In general terms: DSF heats the sample and reads unfolding from a dye or from intrinsic fluorescence.

Experiment [3] addresses T2, BPTF bromodomain (Homo sapiens, UniProt Q12830).
T2 construct: Differential scanning fluorimetry was carried out with the indicated isolated bromodomains at 4–8 μM
The experiment can be described thus: Differential scanning fluorimetry. The experiment is classed as binding. Conditions: BPTF 4–8 μM, compound 20 μM; read-out: DTm. The procedure:
as §2

Experiment [4] deals with T3, BRG1 bromodomain (Homo sapiens, UniProt P51532).
T3 construct: Differential scanning fluorimetry was carried out with the indicated isolated bromodomains at 4–8 μM
T3 sequence (P51532 1453-1564 limits assumed): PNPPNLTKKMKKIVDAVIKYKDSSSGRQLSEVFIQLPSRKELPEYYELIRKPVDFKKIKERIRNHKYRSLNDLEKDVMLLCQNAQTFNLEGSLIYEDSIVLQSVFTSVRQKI
The experiment can be described thus: Differential scanning fluorimetry. To be noted: BRG1 4–8 μM, compound 20 μM; read-out: DTm. The format is binding. Here is the method:
as §2

In experiment [5] the target is T4, TAF1 BD1 BD2 (Homo sapiens, UniProt P21675).
T4 construct: Differential scanning fluorimetry was carried out with the indicated isolated bromodomains at 4–8 μM
T4 sequence (P21675 1397-1628 limits assumed): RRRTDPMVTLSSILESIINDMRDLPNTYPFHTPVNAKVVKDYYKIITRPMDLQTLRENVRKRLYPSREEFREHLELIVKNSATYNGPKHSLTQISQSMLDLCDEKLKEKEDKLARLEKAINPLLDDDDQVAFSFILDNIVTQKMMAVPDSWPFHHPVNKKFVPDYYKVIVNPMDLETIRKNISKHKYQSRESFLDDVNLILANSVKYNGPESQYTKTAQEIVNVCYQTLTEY
The experiment can be described thus: Differential scanning fluorimetry. The experiment is classed as binding. To be noted: TAF1 BD1 BD2 4–8 μM, compound 20 μM; read-out: DTm. The procedure: as §2

The target in experiment [6] is T5, ASH1L bromodomain (Homo sapiens, UniProt Q9NR48).
T5 construct: Differential scanning fluorimetry was carried out with the indicated isolated bromodomains at 4–8 μM
The experiment in a line: Differential scanning fluorimetry. The experiment is classed as binding. To be noted: ASH1L 4–8 μM, compound 20 μM; read-out: DTm. Here is the method: as §2

The target in experiment [7] is T6, TRIM24 bromodomain (Homo sapiens, UniProt O15164).
T6 construct: Differential scanning fluorimetry was carried out with the indicated isolated bromodomains at 4–8 μM
T6 sequence (O15164 899-1004 limits assumed): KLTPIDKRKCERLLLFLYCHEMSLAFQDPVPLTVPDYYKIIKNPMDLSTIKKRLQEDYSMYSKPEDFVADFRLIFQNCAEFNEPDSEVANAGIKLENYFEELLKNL
The experiment can be described thus: Differential scanning fluorimetry. The format is binding. To be noted: TRIM24 4–8 μM, compound 20 μM; read-out: DTm. The procedure: as §2

The subject of experiment [8] is WDR9 bromodomain. The experiment can be described thus: Differential scanning fluorimetry. The experiment is classed as binding. To be noted: WDR9 4–8 μM, compound 20 μM. Here is the method: as §2
Experiment [9] deals with BRD8 bromodomain. The experiment can be described thus: Differential scanning fluorimetry. The experiment is classed as binding. To be noted: BRD8 4–8 μM, compound 20 μM. The procedure:
as §2

In experiment [10] the target is GCN5 bromodomain (Homo sapiens, UniProt Q92830). The experiment in a line: Differential scanning fluorimetry. The format is binding. To be noted: GCN5 4–8 μM, compound 20 μM; read-out: DTm. Here is the method:
as §2

Experiment [11] addresses T7, BRD1 bromodomain (Homo sapiens, UniProt O95696).
T7 construct: Differential scanning fluorimetry was carried out with the indicated isolated bromodomains at 4–8 μM
The experiment can be described thus: Differential scanning fluorimetry. The experiment is classed as binding. To be noted: BRD1 4–8 μM, compound 20 μM; read-out: DTm. The procedure:
as §2

The target in experiment [12] is T8, BRPF1 bromodomain (Homo sapiens, UniProt P55201).
T8 construct: Differential scanning fluorimetry was carried out with the indicated isolated bromodomains at 4–8 μM
T8 sequence (P55201 628-732 limits assumed): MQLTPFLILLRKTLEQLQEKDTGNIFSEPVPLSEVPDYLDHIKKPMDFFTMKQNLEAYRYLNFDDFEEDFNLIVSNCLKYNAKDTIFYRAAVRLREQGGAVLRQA
The experiment in a line: Differential scanning fluorimetry. The experiment is classed as binding. Conditions: BRPF1 4–8 μM, compound 20 μM; read-out: DTm. The procedure:
as §2

Experiment [13] concerns the target T9, BAZ1A bromodomain (Homo sapiens, UniProt Q9NRL2).
T9 construct: Differential scanning fluorimetry was carried out with the indicated isolated bromodomains at 4–8 μM
The experiment can be described thus: Differential scanning fluorimetry. The experiment is classed as binding. To be noted: BAZ1A 4–8 μM, compound 20 μM; read-out: DTm. Here is the method: as §2

Experiment [14] addresses T10, BRPF3 bromodomain (Homo sapiens, UniProt Q9ULD4).
T10 construct: Differential scanning fluorimetry was carried out with the indicated isolated bromodomains at 4–8 μM
The experiment in a line: Differential scanning fluorimetry. To be noted: BRPF3 4–8 μM, compound 20 μM; read-out: DTm. The experiment is classed as binding. Here is the method: as §2

In experiment [15] the target is T11, BRD7 bromodomain (Homo sapiens, UniProt Q9NPI1).
T11 construct: Differential scanning fluorimetry was carried out with the indicated isolated bromodomains at 4–8 μM
T11 sequence (Q9NPI1 131-235 limits assumed): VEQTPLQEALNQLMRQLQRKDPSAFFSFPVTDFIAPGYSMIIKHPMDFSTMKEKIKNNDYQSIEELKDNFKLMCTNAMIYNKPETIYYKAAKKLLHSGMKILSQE
The experiment can be described thus: Differential scanning fluorimetry. The experiment is classed as binding. Conditions: BRD7 4–8 μM, compound 20 μM; read-out: DTm. Here is the method: as §2

The target in experiment [16] is T12, CECR2 bromodomain (Homo sapiens, UniProt Q9BXF3).
T12 construct: Differential scanning fluorimetry was carried out with the indicated isolated bromodomains at 4–8 μM
T12 sequence (Q9BXF3 434-538 limits assumed): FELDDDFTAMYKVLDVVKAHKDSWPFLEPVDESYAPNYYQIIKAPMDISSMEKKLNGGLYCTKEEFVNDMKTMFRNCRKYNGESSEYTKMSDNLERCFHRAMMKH
The experiment in a line: Differential scanning fluorimetry. The format is binding. To be noted: CECR2 4–8 μM, compound 20 μM; read-out: DTm. Here is the method:
as §2

Experiment [17] deals with T13, PCAF bromodomain (Homo sapiens, UniProt Q92831).
T13 construct: Differential scanning fluorimetry was carried out with the indicated isolated bromodomains at 4–8 μM
T13 sequence (Q92831 723-827 limits assumed): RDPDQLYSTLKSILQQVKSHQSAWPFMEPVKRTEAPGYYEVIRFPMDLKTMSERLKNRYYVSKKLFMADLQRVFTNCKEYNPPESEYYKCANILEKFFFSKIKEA
The experiment in a line: Differential scanning fluorimetry. To be noted: PCAF 4–8 μM, compound 20 μM; read-out: DTm. The experiment is classed as binding. Here is the method:
as §2

Experiment [18] deals with T14, BRD9 bromodomain (Homo sapiens, UniProt Q9H8M2).
T14 construct: Differential scanning fluorimetry was carried out with the indicated isolated bromodomains at 4–8 μM
T14 sequence (Q9H8M2 136-240 limits assumed): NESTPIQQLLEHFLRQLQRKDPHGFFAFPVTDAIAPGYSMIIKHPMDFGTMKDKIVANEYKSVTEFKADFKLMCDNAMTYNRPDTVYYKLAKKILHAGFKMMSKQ
The experiment in a line: Differential scanning fluorimetry. The format is binding. Conditions: BRD9 4–8 μM, compound 20 μM; read-out: DTm. The procedure: as §2

Experiment [19] deals with T15, BAZ2B bromodomain (Homo sapiens, UniProt Q9UIF8).
T15 construct: Differential scanning fluorimetry was carried out with the indicated isolated bromodomains at 4–8 μM
T15 sequence (Q9UIF8 2060-2164 limits assumed): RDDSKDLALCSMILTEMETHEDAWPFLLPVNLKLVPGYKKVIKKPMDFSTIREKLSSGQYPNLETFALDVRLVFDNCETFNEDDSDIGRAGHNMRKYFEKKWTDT
The experiment in a line: Differential scanning fluorimetry. The experiment is classed as binding. To be noted: BAZ2B 4–8 μM, compound 20 μM; read-out: DTm. Here is the method:
as §2

For experiment [20], the target named is T16, first bromodomain of BRD4 (BRD4-BD1) (Homo sapiens, UniProt O60885).
T16 construct: the first bromodomain of BRD4 (BRD4-BD1)
The experiment in a line: AlphaLISA, acetylated peptide binding to BRD4-BD1. Here is the method: as §1
In general terms: Bead proximity is the source of the signal in Alpha formats.

Experiment [21] has as its system MOLP-8. The experiment can be described thus: Viability, resazurin, 6 days. The experiment is classed as cell-based, human. Conditions: for GI50: Homo sapiens, 144 h, MOLP-8, myeloma, 6 days. Here is the method: (§3) Cells were plated at 5000–10000 cells per well of 96-well plates containing titrations of the compounds as indicated. After incubation, the cells were incubated with 500 μg/ml resazurin (Sigma) in PBS for 2–8 hr, and fluorescence was measured (Ex 530 nm, Em 590 nm). Cell cycle analysis was performed as described previously ([Mertz et al., 2011]). For visualization, DNA content histograms were generated with GraphPad Prism. Dose-response curves were generated by plotting the normalized percent growth, percent sub-G1 and percent increase in G0/G1 at each dose values. GI50 values were determined as the concentration at which viability was 50% of the DMSO value and calculated by a four-parameter non-linear regression model in GraphPad Prism.
In general terms: The colour change of resazurin is a common sign of viable cells or microbes.

The test system of experiment [22] is Nalm6. The experiment in a line: Viability, resazurin, 6 days. The format is cell-based. To be noted: Homo sapiens, NALM-6, 144 h, Nalm6, ALL. The procedure:
as §3

T9 sequence (Q9NRL2 1430-1533 limits assumed): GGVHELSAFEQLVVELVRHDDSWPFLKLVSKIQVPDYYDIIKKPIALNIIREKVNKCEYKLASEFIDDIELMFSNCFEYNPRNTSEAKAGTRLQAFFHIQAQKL
Sequence of GCN5 bromodomain (Q92830 728-832 limits assumed): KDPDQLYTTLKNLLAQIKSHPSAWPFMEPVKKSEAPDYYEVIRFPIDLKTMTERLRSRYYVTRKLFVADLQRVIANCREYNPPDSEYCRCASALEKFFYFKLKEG
T7 sequence (O95696 562-666 limits assumed): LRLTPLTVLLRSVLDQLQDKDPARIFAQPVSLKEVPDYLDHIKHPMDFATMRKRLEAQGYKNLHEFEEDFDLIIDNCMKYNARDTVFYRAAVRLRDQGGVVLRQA
T10 sequence (Q9ULD4 589-693 limits assumed): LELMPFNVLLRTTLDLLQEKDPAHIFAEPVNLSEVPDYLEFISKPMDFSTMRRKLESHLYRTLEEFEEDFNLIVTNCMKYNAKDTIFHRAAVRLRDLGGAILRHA
T1 sequence (Q92793 1082-1197): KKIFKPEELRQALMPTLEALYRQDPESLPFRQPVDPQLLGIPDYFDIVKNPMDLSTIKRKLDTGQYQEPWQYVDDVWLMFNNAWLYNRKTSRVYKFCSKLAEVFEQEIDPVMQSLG

By IC50 is commonly meant the concentration that gives 50% inhibition. A word on the GI50: it is the concentration at which growth is held to half of that of the control. A higher GI50 goes with less potent growth inhibition. As for `CCC(=O)N1CCOc2c(cc(-c3ccc(OC)c(OC)c3)cc2OC[C@H]2CCCN(C)C2)C1` [I-CBP112], the IC50 in [1] was 190 ± 20 nM; in experiment [20], 8900 ± 60 nM. In addition, the DTm turned out to be 2.12 °C in experiment [2], 0.04 °C in [8] and 0.88 °C in experiment [9]. Further, the ΔTm at 20 µM in [3] turned out to be 0.93 °C; in experiment [4] it was 0.38 °C; in experiment [5] it was 0.12 °C; in experiment [6], 0.04 °C; in [7], 0.32 °C; in experiment [10], 0.14 °C. The ΔTm at 20 µM was -0.44 °C in [11]; 0.11 °C in [12]; 0.41 °C in experiment [13]; 0.75 °C in experiment [14]; 0.44 °C in experiment [15]; 1.46 °C in experiment [16]. In addition, the ΔTm at 20 µM was -0.08 °C in experiment [17], 0.37 °C in [18] and 0.28 °C in [19]. In addition, growth in experiment [21] was halved (GI50) at 3520 nM.

Consider `COc1ccc(CCc2nc3cc(-c4c(C)noc4C)ccc3n2C[C@H](C)N2CCOCC2)cc1Cl` [SGC-CBP30], for which the values for the GI50 in experiment [22] and in [21] were 3860 nM and 2060 nM, respectively. For the same molecule, the DTm is 2.01 °C in [2], -0.08 °C in experiment [8] and 0.76 °C in [9]. Further, the ΔTm at 20 µM is 0.69 °C in experiment [3]; 0.27 °C in experiment [4]; 0.12 °C in experiment [5]; 0.04 °C in experiment [6]; 0.43 °C in experiment [7]; -0.09 °C in experiment [10]. Moreover, the ΔTm at 20 µM is 0.26 °C in experiment [11]; 0.11 °C in experiment [12]; 0.18 °C in experiment [13]; -0.18 °C in experiment [14]; 0.5 °C in [15]; 0.76 °C in experiment [16]. The results for the ΔTm at 20 µM in experiment [17], in experiment [18] and in experiment [19] were -0.08 °C, 0.37 °C and -0.06 °C, respectively. Moreover, the IC50 in experiment [20] turned out to be 2100 ± 300 nM. Further, in experiment [21] (MOLP8), the log2GI50 was 1.04.
